# Reference: patent publication US20040029965A1, “Formulations for reducing or eliminating toxicity of enviromental hormones containing ursodeoxycholic acid” (priority 2000, published 2004)
# Experiments:
# C57B1/6J mice [1] = experiment: Feed uptake of mice after a single subcutaneous injection of TCDD; type: in vivo; set-up: unit not given here
# Description: (§1) Male C57B1/6J mice of 5 weeks old having the average weight of 18-22 g which had been bred in CRJ (Charles River in Japan) were purchased and used in this example as experimental animals. Those mice were acclimated under the constant breeding condition, i.e. the temperature of 24±1° C., the humidity of 60±10% and the light and darkness cycle of 12 hours, for one week and thereafter, utilized in the experiment.
# (§2) The Experimental animals were supplied with Purina powdered feed (purchased from Hae Eun Trade) and supplied with water ad libitum. All the animals were weighed twice a week during experimentation.
# (§3) 2,3,7,8-tetrachlorodibenzo-p-dioxin (TCDD) dissolved in toluene (purity of 95% or more as a result of gas chromatography analysis), manufactured by Chem. Services Inc. in USA, was volatilized with nitrogen to obtain powder. The obtained powder was dissolved in a mixed solvent containing acetone and corn oil with a volume ratio of 1:6. The resulting solution each containing 110, 27.5 and 6.9 μg/kg of TCDD was subcutaneously injected to mice at a volume of 5 ml per body weight. […] The mice were supplied with the feed from 10 days before (pre-administration) to 60 days after administration of TCDD (post-administration).
# (§4) The results are expressed as Mean±Standard Deviation values. For statistical analysis of the body weight, feed and water uptake, biochemical findings, hematological findings and the weight of organ in an acute toxicity test, verification was performed by one way analysis of variance (ANOVA) in case of equal distribution. In case significance was recognized in ANOVA, the Student's t-test was performed in the levels of p<0.05 and p<0.01.
# C57B1/6J mice [2] = experiment: Changes in body weight of mice after a single subcutaneous injection of TCDD; type: in vivo; details: for Weight (body weight): at sacrifice
# Description: as §1, §2, §3, §4
# [3] = TCDD 27.5 μg/kg + UDCA 0.5 wt %, 50 days
# [4] = TCDD 110.0 μg/kg + UDCA 0.5 wt %, 50 days
compound,measurement,setting,value
"C[C@H](CCC(=O)O)[C@H]1CC[C@H]2[C@@H]3[C@@H](O)C[C@@H]4C[C@H](O)CC[C@]4(C)[C@H]3CC[C@]12C [UDCA, 3α, 7β-dihydroxy-5β-cholanoic acid]",feed uptake,"C57B1/6J mice [1]; TCDD 27.5 μg/kg + UDCA 0.5 wt %, 40 days",3.49 ± 0.57
same,feed uptake,C57B1/6J mice [1]; [3],3.18 ± 0.55
same,feed uptake,"C57B1/6J mice [1]; TCDD 27.5 μg/kg + UDCA 0.5 wt %, 60 days",3.17 ± 0.49
same,feed uptake,"C57B1/6J mice [1]; TCDD 110.0 μg/kg + UDCA 0.125 wt %, 10 days",3.77 ± 0.43
same,feed uptake,"C57B1/6J mice [1]; TCDD 110.0 μg/kg + UDCA 0.125 wt %, 20 days",3.64 ± 1.16
same,feed uptake,"C57B1/6J mice [1]; TCDD 110.0 μg/kg + UDCA 0.125 wt %, 30 days",2.94 ± 0.64
same,feed uptake,"C57B1/6J mice [1]; TCDD 110.0 μg/kg + UDCA 0.125 wt %, 40 days",1.99 ± 0.58
same,feed uptake,"C57B1/6J mice [1]; TCDD 110.0 μg/kg + UDCA 0.25 wt %, 10 days",3.65 ± 0.33
same,feed uptake,"C57B1/6J mice [1]; TCDD 110.0 μg/kg + UDCA 0.25 wt %, 20 days",3.09 ± 0.44
same,feed uptake,"C57B1/6J mice [1]; TCDD 110.0 μg/kg + UDCA 0.25 wt %, 30 days",3.23 ± 0.55
same,feed uptake,"C57B1/6J mice [1]; TCDD 110.0 μg/kg + UDCA 0.25 wt %, 40 days",3.06 ± 1.89
same,feed uptake,"C57B1/6J mice [1]; TCDD 110.0 μg/kg + UDCA 0.5 wt %, 10 days",3.87 ± 0.57
same,feed uptake,"C57B1/6J mice [1]; TCDD 110.0 μg/kg + UDCA 0.5 wt %, 20 days",3.77 ± 0.62
same,feed uptake,"C57B1/6J mice [1]; TCDD 110.0 μg/kg + UDCA 0.5 wt %, 30 days",3.39 ± 0.24
same,feed uptake,"C57B1/6J mice [1]; TCDD 110.0 μg/kg + UDCA 0.5 wt %, 40 days",2.72 ± 0.72
same,feed uptake,C57B1/6J mice [1]; [4],2.19 ± 0.22
same,feed uptake,"C57B1/6J mice [1]; TCDD 110.0 μg/kg + UDCA 0.5 wt %, 60 days",2.05 ± 0.62
same,body weight,"C57B1/6J mice [2]; TCDD 6.9 μg/kg + UDCA 0.125 wt %, 0 day",19.77 ± 0.21
same,body weight,"C57B1/6J mice [2]; TCDD 6.9 μg/kg + UDCA 0.125 wt %, 12 days",21.95 ± 0.28
same,body weight,"C57B1/6J mice [2]; TCDD 6.9 μg/kg + UDCA 0.125 wt %, 22 days",23.16 ± 0.32
same,body weight,"C57B1/6J mice [2]; TCDD 6.9 μg/kg + UDCA 0.125 wt %, 32 days",24.15 ± 0.38
same,body weight,"C57B1/6J mice [2]; TCDD 6.9 μg/kg + UDCA 0.125 wt %, 39 days",25.21 ± 0.46
same,body weight,"C57B1/6J mice [2]; TCDD 6.9 μg/kg + UDCA 0.125 wt %, 50 days",26.62 ± 0.56
same,body weight,"C57B1/6J mice [2]; TCDD 6.9 μg/kg + UDCA 0.125 wt %, 59 days",27.06 ± 0.60
same,Weight (body weight),C57B1/6J mice [2]; TCDD 6.9 μg/kg + UDCA 0.125 wt %,24.12 ± 1.83 g
same,body weight,"C57B1/6J mice [2]; TCDD 6.9 μg/kg + UDCA 0.25 wt %, 0 day",20.13 ± 0.34
same,body weight,"C57B1/6J mice [2]; TCDD 6.9 μg/kg + UDCA 0.25 wt %, 12 days",22.18 ± 0.38
same,body weight,"C57B1/6J mice [2]; TCDD 6.9 μg/kg + UDCA 0.25 wt %, 22 days",23.81 ± 0.43
same,body weight,"C57B1/6J mice [2]; TCDD 6.9 μg/kg + UDCA 0.25 wt %, 32 days",24.21 ± 0.47
same,body weight,"C57B1/6J mice [2]; TCDD 6.9 μg/kg + UDCA 0.25 wt %, 39 days",25.69 ± 0.45
same,body weight,"C57B1/6J mice [2]; TCDD 6.9 μg/kg + UDCA 0.25 wt %, 50 days",27.15 ± 0.46
same,body weight,"C57B1/6J mice [2]; TCDD 6.9 μg/kg + UDCA 0.25 wt %, 59 days",27.74 ± 0.48
same,Weight (body weight),C57B1/6J mice [2]; TCDD 6.9 μg/kg + UDCA 0.25 wt %,24.72 ± 1.39 g
same,body weight,"C57B1/6J mice [2]; TCDD 6.9 μg/kg + UDCA 0.5 wt %, 0 day",19.97 ± 0.28
same,body weight,"C57B1/6J mice [2]; TCDD 6.9 μg/kg + UDCA 0.5 wt %, 12 days",21.81 ± 0.32
same,body weight,"C57B1/6J mice [2]; TCDD 6.9 μg/kg + UDCA 0.5 wt %, 22 days",23.26 ± 0.37
same,body weight,"C57B1/6J mice [2]; TCDD 6.9 μg/kg + UDCA 0.5 wt %, 32 days",24.28 ± 0.50
same,body weight,"C57B1/6J mice [2]; TCDD 6.9 μg/kg + UDCA 0.5 wt %, 39 days",25.22 ± 0.49
same,body weight,"C57B1/6J mice [2]; TCDD 6.9 μg/kg + UDCA 0.5 wt %, 50 days",27.15 ± 0.49
same,body weight,"C57B1/6J mice [2]; TCDD 6.9 μg/kg + UDCA 0.5 wt %, 59 days",27.06 ± 0.56
same,Weight (body weight),C57B1/6J mice [2]; TCDD 6.9 μg/kg + UDCA 0.5 wt %,24.19 ± 1.38 g
same,body weight,"C57B1/6J mice [2]; TCDD 27.5 μg/kg + UDCA 0.125 wt %, 0 day",19.80 ± 0.25
same,body weight,"C57B1/6J mice [2]; TCDD 27.5 μg/kg + UDCA 0.125 wt %, 12 days",22.04 ± 0.26
same,body weight,"C57B1/6J mice [2]; TCDD 27.5 μg/kg + UDCA 0.125 wt %, 22 days",23.59 ± 0.28
same,body weight,"C57B1/6J mice [2]; TCDD 27.5 μg/kg + UDCA 0.125 wt %, 32 days",24.17 ± 0.33
same,body weight,"C57B1/6J mice [2]; TCDD 27.5 μg/kg + UDCA 0.125 wt %, 39 days",25.48 ± 0.36
same,body weight,"C57B1/6J mice [2]; TCDD 27.5 μg/kg + UDCA 0.125 wt %, 50 days",26.63 ± 0.28
same,body weight,"C57B1/6J mice [2]; TCDD 27.5 μg/kg + UDCA 0.125 wt %, 59 days",26.93 ± 0.34
same,Weight (body weight),C57B1/6J mice [2]; TCDD 27.5 μg/kg + UDCA 0.125 wt %,24.58 ± 1.07 g
same,body weight,"C57B1/6J mice [2]; TCDD 27.5 μg/kg + UDCA 0.25 wt %, 0 day",19.96 ± 0.30
same,body weight,"C57B1/6J mice [2]; TCDD 27.5 μg/kg + UDCA 0.25 wt %, 12 days",22.22 ± 0.29
same,body weight,"C57B1/6J mice [2]; TCDD 27.5 μg/kg + UDCA 0.25 wt %, 22 days",23.56 ± 0.37
same,body weight,"C57B1/6J mice [2]; TCDD 27.5 μg/kg + UDCA 0.25 wt %, 32 days",24.34 ± 0.38
same,body weight,"C57B1/6J mice [2]; TCDD 27.5 μg/kg + UDCA 0.25 wt %, 39 days",25.38 ± 0.37
same,body weight,"C57B1/6J mice [2]; TCDD 27.5 μg/kg + UDCA 0.25 wt %, 50 days",26.94 ± 0.50
same,body weight,"C57B1/6J mice [2]; TCDD 27.5 μg/kg + UDCA 0.25 wt %, 59 days",27.27 ± 0.51
same,Weight (body weight),C57B1/6J mice [2]; TCDD 27.5 μg/kg + UDCA 0.25 wt %,24.62 ± 1.44 g
same,body weight,"C57B1/6J mice [2]; TCDD 27.5 μg/kg + UDCA 0.5 wt %, 0 day",19.08 ± 0.20
same,body weight,"C57B1/6J mice [2]; TCDD 27.5 μg/kg + UDCA 0.5 wt %, 12 days",21.09 ± 0.32
same,body weight,"C57B1/6J mice [2]; TCDD 27.5 μg/kg + UDCA 0.5 wt %, 22 days",22.52 ± 0.33
same,body weight,"C57B1/6J mice [2]; TCDD 27.5 μg/kg + UDCA 0.5 wt %, 32 days",23.33 ± 0.32
same,body weight,"C57B1/6J mice [2]; TCDD 27.5 μg/kg + UDCA 0.5 wt %, 39 days",24.07 ± 0.34
same,body weight,C57B1/6J mice [2]; [3],25.31 ± 0.43
same,body weight,"C57B1/6J mice [2]; TCDD 27.5 μg/kg + UDCA 0.5 wt %, 59 days",24.52 ± 0.42
same,Weight (body weight),C57B1/6J mice [2]; TCDD 27.5 μg/kg + UDCA 0.5 wt %,22.15 ± 1.14 g
same,body weight,"C57B1/6J mice [2]; TCDD 110.0 μg/kg + UDCA 0.125 wt %, 0 day",19.48 ± 0.29
same,body weight,"C57B1/6J mice [2]; TCDD 110.0 μg/kg + UDCA 0.125 wt %, 12 days",19.40 ± 0.40
same,body weight,"C57B1/6J mice [2]; TCDD 110.0 μg/kg + UDCA 0.125 wt %, 22 days",18.44 ± 0.87
same,body weight,"C57B1/6J mice [2]; TCDD 110.0 μg/kg + UDCA 0.125 wt %, 32 days",12.61
same,Weight (body weight),C57B1/6J mice [2]; TCDD 110.0 μg/kg + UDCA 0.125 wt %,15.93 g
same,body weight,"C57B1/6J mice [2]; TCDD 110.0 μg/kg + UDCA 0.25 wt %, 0 day",19.65 ± 0.44
same,body weight,"C57B1/6J mice [2]; TCDD 110.0 μg/kg + UDCA 0.25 wt %, 12 days",20.64 ± 0.50
same,body weight,"C57B1/6J mice [2]; TCDD 110.0 μg/kg + UDCA 0.25 wt %, 22 days",19.69 ± 1.03
same,body weight,"C57B1/6J mice [2]; TCDD 110.0 μg/kg + UDCA 0.25 wt %, 32 days",18.78 ± 1.14
same,body weight,"C57B1/6J mice [2]; TCDD 110.0 μg/kg + UDCA 0.25 wt %, 39 days",14.26
same,body weight,"C57B1/6J mice [2]; TCDD 110.0 μg/kg + UDCA 0.25 wt %, 50 days",14.85
same,body weight,"C57B1/6J mice [2]; TCDD 110.0 μg/kg + UDCA 0.25 wt %, 59 days",17.10
same,Weight (body weight),C57B1/6J mice [2]; TCDD 110.0 μg/kg + UDCA 0.25 wt %,18.53 ± 3.79 g
same,body weight,"C57B1/6J mice [2]; TCDD 110.0 μg/kg + UDCA 0.5 wt %, 0 day",19.71 ± 0.14
same,body weight,"C57B1/6J mice [2]; TCDD 110.0 μg/kg + UDCA 0.5 wt %, 12 days",20.52 ± 0.32
same,body weight,"C57B1/6J mice [2]; TCDD 110.0 μg/kg + UDCA 0.5 wt %, 22 days",21.15 ± 0.82
same,body weight,"C57B1/6J mice [2]; TCDD 110.0 μg/kg + UDCA 0.5 wt %, 32 days",20.76 ± 1.04
same,body weight,"C57B1/6J mice [2]; TCDD 110.0 μg/kg + UDCA 0.5 wt %, 39 days",19.81 ± 1.37
same,body weight,C57B1/6J mice [2]; [4],18.19 ± 1.80
same,body weight,"C57B1/6J mice [2]; TCDD 110.0 μg/kg + UDCA 0.5 wt %, 59 days",18.53 ± 1.59
